From ChEMBL document CHEMBL1137793, “Synthesis and biological activity of analogs of fecapentaene-12” (J Nat Prod, 1987) come the findings set out here.

Common to all, as to details: salmonella enterica subsp. enterica serovar typhimurium
For series [1], the system named is Salmonella typhimurium. The series is described as follows: Mutagenic activity in Salmonella Typhimurium TA98 assessed as number of revertant colonies at 100000 ng/plate after 48 hrs by Ames assay. Type of series: toxicity, organism-based. Background: The Ames test detects mutagens through reverse mutation in bacteria.
The test system of series [2] is Salmonella typhimurium. As to the kind of experiment: Mutagenic activity in aldehyde-sensitive Salmonella Typhimurium TA104 assessed as number of revertant colonies at 100000 ng/plate after 48 hrs by Ames assay. The series is classed as toxicity, organism-based.
The subject of series [3] is Salmonella typhimurium. The series is described as follows: Mutagenic activity in Salmonella Typhimurium TA100 assessed as number of revertant colonies at 100000 ng/plate after 48 hrs by Ames assay. Type of series: toxicity, organism-based.
Series [4] deals with Salmonella typhimurium. The series is described as follows: Mutagenic activity in Salmonella Typhimurium TA100 assessed as number of revertant colonies at 25000 ng/plate after 48 hrs by Ames assay. The series is classed as toxicity, organism-based.
The subject of series [5] is Salmonella typhimurium. As to the kind of experiment: Mutagenic activity in Salmonella Typhimurium TA100 assessed as number of revertant colonies at 50000 ng/plate after 48 hrs by Ames assay. Type of series: toxicity, organism-based.
Series [6] deals with Salmonella typhimurium. As to the kind of experiment: Mutagenic activity in aldehyde-sensitive Salmonella Typhimurium TA104 assessed as number of revertant colonies at 50000 ng/plate after 48 hrs by Ames assay. The series is classed as toxicity, organism-based.
The test system of series [7] is Salmonella typhimurium. As to the kind of experiment: Mutagenic activity in aldehyde-sensitive Salmonella Typhimurium TA104 assessed as number of revertant colonies at 25000 ng/plate after 48 hrs by Ames assay. Type of series: toxicity, organism-based.
In series [8] the test system is Salmonella typhimurium. The series is described as follows: Mutagenic activity in Salmonella Typhimurium TA98 assessed as number of revertant colonies at 50000 ng/plate after 48 hrs by Ames assay. Type of series: toxicity, organism-based.
Series [9] relates to Salmonella typhimurium. As to the kind of experiment: Toxicity in Salmonella Typhimurium TA100 at 10000 ng/plate after 48 hrs by Ames assay. The series is classed as organism-based.
The subject of series [10] is Salmonella typhimurium. As to the kind of experiment: Mutagenic activity in Salmonella Typhimurium TA100 assessed as number of revertant colonies at 313 ng/plate after 48 hrs by Ames assay. Type of series: toxicity, organism-based.
For series [11], the system named is Salmonella typhimurium. The series is described as follows: Mutagenic activity in Salmonella Typhimurium TA100 assessed as number of revertant colonies at 78 ng/plate after 48 hrs by Ames assay. Type of series: toxicity, organism-based.
The test system of series [12] is Salmonella typhimurium. The series is described as follows: Toxicity in Salmonella Typhimurium TA100 at 5000 ng/plate after 48 hrs by Ames assay. Type of series: organism-based.
The subject of series [13] is Salmonella typhimurium. As to the kind of experiment: Mutagenic activity in Salmonella Typhimurium TA100 assessed as number of revertant colonies at 156 ng/plate after 48 hrs by Ames assay. Type of series: toxicity, organism-based.
Series [14] has as its system Salmonella typhimurium. As to the kind of experiment: Toxicity in Salmonella Typhimurium TA98 at 5000 ng/plate after 48 hrs by Ames assay. Type of series: organism-based.
Series [15] has as its system Salmonella typhimurium. As to the kind of experiment: Toxicity in aldehyde-sensitive Salmonella Typhimurium TA104 at 10000 ng/plate after 48 hrs by Ames assay. The series is classed as organism-based.
Series [16] concerns Salmonella typhimurium. As to the kind of experiment: Toxicity in Salmonella Typhimurium TA98 at 10000 ng/plate after 48 hrs by Ames assay. Type of series: organism-based.
In series [17] the test system is Salmonella typhimurium. The series is described as follows: Mutagenic activity in Salmonella Typhimurium TA100 assessed as number of revertant colonies at 36 ng/plate after 48 hrs by Ames assay. The series is classed as toxicity, organism-based.
For series [18], the system named is Salmonella typhimurium. The series is described as follows: Toxicity in aldehyde-sensitive Salmonella Typhimurium TA104 at 5000 ng/plate after 48 hrs by Ames assay. The series is classed as organism-based.
Series [19] has as its system Salmonella typhimurium. The series is described as follows: Toxicity in aldehyde-sensitive Salmonella Typhimurium TA104 at 2500 ng/plate after 48 hrs by Ames assay. Type of series: organism-based.
The subject of series [20] is Salmonella typhimurium. The series is described as follows: Toxicity in Salmonella Typhimurium TA100 at 2500 ng/plate after 48 hrs by Ames assay. The series is classed as organism-based.

Structures are written as SMILES.

`CC/C=C/C=C/C=C/C=C/C=O`: the Activity turned out to be 23 in the series on Salmonella typhimurium [1]; 181 in the series with Salmonella typhimurium [2]; 221 in the series on Salmonella typhimurium [3]; 185 with Salmonella typhimurium [4]; 187 in the series on Salmonella typhimurium [5]; 186 in the series on Salmonella typhimurium [6]. Besides, the Activity is recorded as 165 in the series on Salmonella typhimurium [7] and 24 in the series on Salmonella typhimurium [8].
In the case of `CC/C=C/C=C/C=C/C=C/C=C/OCC(O)CO` (racemic), the Activity result in the series on Salmonella typhimurium [9] is given as “Toxic”; with Salmonella typhimurium [10], 799; in the series with Salmonella typhimurium [11] it was 204; in the series on Salmonella typhimurium [12] it was “Toxic”; in the series with Salmonella typhimurium [13] it was 561; in the series with Salmonella typhimurium [14], “Toxic”. Besides, the Activity entry was “Toxic” with Salmonella typhimurium [15]; “Toxic” in the series with Salmonella typhimurium [16]; 184 in the series with Salmonella typhimurium [17]; “Toxic” in the series with Salmonella typhimurium [18]; “Toxic” with Salmonella typhimurium [19]; “Toxic” in the series on Salmonella typhimurium [20].
In the case of `CC/C=C/C=C/C=C/C=C/C=C/OC[C@@H](O)CO`, the Activity result in the series on Salmonella typhimurium [9] is given as “Toxic”; with Salmonella typhimurium [10], 612; with Salmonella typhimurium [11], 306; with Salmonella typhimurium [12] it was “Toxic”; in the series on Salmonella typhimurium [13], 459; with Salmonella typhimurium [14], “Toxic”. Besides, the Activity result is recorded as “Toxic” in the series with Salmonella typhimurium [16], 187 with Salmonella typhimurium [17] and “Toxic” in the series with Salmonella typhimurium [20].
